*1 amine or outer side, *2 acyl side, *3 side chain or, on linkers, in order; H or OH if unused. Where a SMILES comes first, the peptide text is derived from it. Bridges are numbered along the chain shown (N, C = ends). [ ]: non-standard residue; d: D form. N(4-F-Bzl)Gly = O=C(O)CNCc1ccc(F)cc1; X1 = O=C(CCC[*:2])[*:1]
Key:
[1] = Trial 000015 Part 2: pharmacokinetics after multiple intranasal administrations; type: in vivo, human; conditions: female, human, plasma
Source text: The trial was divided into three parts:
Part 2. Ascending multiple i.n. doses.

[2] = Trial 000015 Part 3: pharmacokinetics, single intranasal and single intravenous cross-over; conditions: female, human, plasma; for Tmax: tmax Mean (SD); for bioavailability: 400 μg i.n. vs 20 μg i.v.
Protocol: Open-label cross-over single i.n. and single i.v. dose in 6 healthy women. The doses investigated were 20 μg as an i.v. infusion over 25 minutes, and 400 μg as a single i.n. dose.
The intranasal dose was 400 μg (4×140 μl, the same as the highest dose in Part 1), the i.v. dose was 20 μg infused in 2 mL over 25 minutes.
The intravenous dose and infusion rate were determined from the intranasal pharmacokinetic data in Part 1.

clinical = conditions: female, human, in vivo
Protocol: The first clinical trial in human, Trial 000015, was a double-blind, placebo-controlled, single dose, within dose panel randomised, sequential dose escalating study. The trial was divided into three parts:
Part 1. Ascending single i.n. doses. There were 7 dose panels with 8 healthy women in each dose panel (6 active, 2 placebo). The doses investigated were 5 μg, 15 μg, 50 μg, 100 μg, 200 μg, 300 μg, and 400 μg.
Seven dose levels were investigated: 5, 15, 50, 100, 200, 300, and 400 μg. Each of the doses were administered as a nasal spray based on one or multiple puffs per nostril.
FE 202767 was provided as an isotonic citrate/phosphate buffered solution of pH 5.5 in water in vials containing an extractable volume of 0.9 mL (Table 2). The concentration of FE 202767 was 0.7 mg/mL, to be used appropriately diluted with buffer or, for Part 3, NaCl for injection. The buffer used for FE 202767 was used as placebo in this study.

early postpartum women = conditions: in vivo
Protocol: Healthy women received 5 or 20 μg merotocin i.v. shortly after delivery (Part A) or 20 μg merotocin i.v. when lactation was established (Part B). Milk was expressed by pumping at 15 minutes, 3 hours, 6 hours, 9 hours, 12 hours, 18 hours and 18-24 hours after start of infusion and analysed for merotocin and metabolites.

[3] = in vivo

CC[C@H](C)[C@@H]1NC(=O)[C@H](Cc2ccc(O)cc2)NC(=O)CCCSC[C@@H](C(=O)N(CC(=O)N[C@@H](CC(C)C)C(=O)NCC(N)=O)Cc2ccc(F)cc2)NC(=O)[C@H](CC(N)=O)NC(=O)[C@H](CCC(N)=O)NC1=O [merotocin, Glycinamide, N-(4-mercapto-1-oxobutyl)-L-tyrosyl-L-isoleucyl-Lglutaminyl-L-asparaginyl-L-cysteinyl-N-[(4-fluorophenyl)methyl]glycyl-L-leucyl-, cyclic (1→5)-thioether] (YIQNC[N(4-F-Bzl)Gly]LG-NH2; linker N-5 via X1)
half-life ([1]; inhaled or intranasal, 200 ug, multiple i.n. doses every 3 hours, 200 μg, Dose No. 2, read-out: t1/2 Harmonic mean (converted)): 26.4 min
Tmax ([1]; inhaled or intranasal, 200 ug, multiple i.n. doses every 3 hours, 200 μg, Dose No. 2, read-out: tmax Mean (SD)): 16.8 min
AUC(0-t) ([1]; inhaled or intranasal, 200 ug, multiple i.n. doses every 3 hours, 200 μg, Dose No. 16, read-out: AUCt Geom. mean (% CV)): 0.16 ng·h/mL
AUC(0-t) ([1]; inhaled or intranasal, 200 ug, multiple i.n. doses every 3 hours, 200 μg, Dose No. 16, read-out: AUCt Median): 0.147 ng·h/mL
Cmax ([1]; inhaled or intranasal, 200 ug, multiple i.n. doses every 3 hours, 200 μg, Dose No. 16, read-out: Cmax Geom. mean (% CV)): 0.218 ng/mL
Cmax ([1]; inhaled or intranasal, 200 ug, multiple i.n. doses every 3 hours, 200 μg, Dose No. 16, read-out: Cmax Median): 0.225 ng/mL
half-life ([1]; inhaled or intranasal, 200 ug, multiple i.n. doses every 3 hours, 200 μg, Dose No. 16, read-out: t1/2 Harmonic mean (converted)): 30.6 min
Tmax ([1]; inhaled or intranasal, 200 ug, multiple i.n. doses every 3 hours, 200 μg, Dose No. 16, read-out: tmax Mean (SD)): 18.6 min
AUC(0-t) ([1]; inhaled or intranasal, 400 ug, multiple i.n. doses every 3 hours, 400 μg, Dose No. 1, read-out: AUCt Geom. mean (% CV)): 0.0771 ng·h/mL
AUC(0-t) ([1]; inhaled or intranasal, 400 ug, multiple i.n. doses every 3 hours, 400 μg, Dose No. 1, read-out: AUCt Median): 0.0702 ng·h/mL
Cmax ([1]; inhaled or intranasal, 400 ug, multiple i.n. doses every 3 hours, 400 μg, Dose No. 1, read-out: Cmax Geom. mean (% CV)): 0.156 ng/mL
Cmax ([1]; inhaled or intranasal, 400 ug, multiple i.n. doses every 3 hours, 400 μg, Dose No. 1, read-out: Cmax Median): 0.136 ng/mL
half-life ([1]; inhaled or intranasal, 400 ug, multiple i.n. doses every 3 hours, 400 μg, Dose No. 1, read-out: t1/2 Harmonic mean (converted)): 21 min
AUC(0-t) ([1]; inhaled or intranasal, 400 ug, multiple i.n. doses every 3 hours, 400 μg, Dose No. 2, read-out: AUCt Geom. mean (% CV)): 0.0888 ng·h/mL
AUC(0-t) ([1]; inhaled or intranasal, 400 ug, multiple i.n. doses every 3 hours, 400 μg, Dose No. 2, read-out: AUCt Median): 0.142 ng·h/mL
Cmax ([1]; inhaled or intranasal, 400 ug, multiple i.n. doses every 3 hours, 400 μg, Dose No. 2, read-out: Cmax Geom. mean (% CV)): 0.169 ng/mL
Cmax ([1]; inhaled or intranasal, 400 ug, multiple i.n. doses every 3 hours, 400 μg, Dose No. 2, read-out: Cmax Median): 0.195 ng/mL
half-life ([1]; inhaled or intranasal, 400 ug, multiple i.n. doses every 3 hours, 400 μg, Dose No. 2, read-out: t1/2 Harmonic mean (converted)): 23.4 min
Tmax ([1]; inhaled or intranasal, 400 ug, multiple i.n. doses every 3 hours, 400 μg, Dose No. 2, read-out: tmax Mean (SD)): 9.6 min
Cmax ([1]; inhaled or intranasal, 400 ug, multiple i.n. doses every 3 hours, 400 μg, Dose No. 16, read-out: Cmax Geom. mean (% CV)): 0.18 ng/mL
Cmax ([1]; inhaled or intranasal, 400 ug, multiple i.n. doses every 3 hours, 400 μg, Dose No. 16, read-out: Cmax Median): 0.192 ng/mL
half-life ([1]; inhaled or intranasal, 400 ug, multiple i.n. doses every 3 hours, 400 μg, Dose No. 16, read-out: t1/2 Median (converted)): 39 min
Tmax ([1]; inhaled or intranasal, 400 ug, multiple i.n. doses every 3 hours, 400 μg, Dose No. 16, read-out: tmax Mean (SD)): 18 min
Tmax ([1]; other: intranasal, 50 ug, multiple i.n. doses every 3 hours, 50 μg, Dose No. 2, read-out: tmax Mean (SD)): 20.4 min
Cmax ([1]; other: intranasal, 50 ug, multiple i.n. doses every 3 hours, 50 μg, Dose No. 16, read-out: Cmax Geom. mean (% CV)): 0.0236 ng/mL
Tmax ([1]; other: intranasal, 400 ug, multiple i.n. doses every 3 hours, 400 μg, Dose No. 1, read-out: tmax Mean (SD)): 6.6 min
AUC(0-t) ([1]; other: intranasal, 400 ug, multiple i.n. doses every 3 hours, 400 μg, Dose No. 16, read-out: AUCt Geom. mean (% CV)): 0.112 ng·h/mL
AUC(0-t) ([1]; other: intranasal, 400 ug, multiple i.n. doses every 3 hours, 400 μg, Dose No. 16, read-out: AUCt Median): 0.112 ng·h/mL
half-life ([1]; other: intranasal, 400 ug, multiple i.n. doses every 3 hours, 400 μg, Dose No. 16, read-out: t1/2 Harmonic mean (converted)): 33.6 min
half-life ([1]; other: intranasal, multiple i.n. doses, all dose groups, read-out: t1/2): 25 to 35 min
Tmax ([1]; other: intranasal, multiple i.n. doses, all dose groups, read-out: tmax): 12 to 15 min
AUC(0-t) ([2]; inhaled or intranasal, 400 ug, AUCt Geom. mean (% CV), cross-over, 400 μg i.n. single dose, N = 6): 0.083 ng·h/mL
AUC(0-t) ([2]; inhaled or intranasal, 400 ug, AUCt Median, cross-over, 400 μg i.n. single dose, N = 6): 0.0728 ng·h/mL
half-life ([2]; inhaled or intranasal, 400 ug, t1/2 Median, cross-over, 400 μg i.n. single dose, N = 6): 36.6 min
Tmax ([2]; inhaled or intranasal, 400 ug, cross-over, 400 μg i.n. single dose, N = 6): 6.6 min
AUC(0-t) ([2]; iv, 20 ug, AUCt Geom. mean (% CV), cross-over, 20 μg i.v. infusion over 25 minutes, N = 6): 0.146 ng·h/mL
clearance ([2]; iv, 20 ug, CL Median, 20 μg i.v. infusion over 25 minutes, N = 6): 2130 mL/min
Cmax ([2]; iv, 20 μg, Cmax Geom. mean (% CV), cross-over, 20 μg i.v. infusion over 25 minutes, N = 6): 0.463 ng/mL
Cmax ([2]; iv, 20 ug, Cmax Median, cross-over, 20 μg i.v. infusion over 25 minutes, N = 6): 0.463 ng/mL
Vd ([2]; iv, 20 ug, Vz Mean (SD), 20 μg i.v. infusion over 25 minutes, N = 6): 37.5 L
Vd ([2]; iv, 20 ug, Vz Median, 20 μg i.v. infusion over 25 minutes, N = 6): 31.2 L
Cmax ([2]; iv, 20 μg, mean Cmax, single i.v. infusion of 20 μg over 25 minutes): 0.463 ng/mL
half-life ([2]; iv, 20 ug, t1/2 Harmonic mean, cross-over, 20 μg i.v. infusion over 25 minutes, N = 6): 10.2 min
half-life ([2]; iv, 20 ug, t1/2 Median, cross-over, 20 μg i.v. infusion over 25 minutes, N = 6): 10.8 min
Tmax ([2]; iv, 20 ug, cross-over, 20 μg i.v. infusion over 25 minutes, N = 6): 21.6 min
Cmax ([2]; other: intranasal, 400 ug, Cmax Geom. mean (% CV), cross-over, 400 μg i.n. single dose, N = 6): 0.151 ng/mL
Cmax ([2]; other: intranasal, 400 ug, Cmax Median, cross-over, 400 μg i.n. single dose, N = 6): 0.156 ng/mL
bioavailability ([2]; other: intranasal, 400 μg, F Median, N = 6): 3.4%
bioavailability ([2]; other: intranasal, 400 μg, bioavailability (range)): 2.2 to 6.2%
Cmax ([2]; other: intranasal, 400 μg, mean Cmax, single dose i.n. administration, highest dose group): 0.151 ng/mL
half-life (clinical; inhaled or intranasal, 200 ug, t1/2 Median): 23.4 min
half-life (clinical; inhaled or intranasal, 400 ug, t1/2 Harmonic mean): 33.6 min
half-life (clinical; inhaled or intranasal, 400 ug, t1/2 Median): 33 min
half-life (clinical; t1/2): 25 to 35 min
Any AE: number of AEs, E (early postpartum women): 16
Any AE: subjects with AE, n (%) (early postpartum women): 8 (44)
Back pain: number of AEs, E (early postpartum women): 1
Back pain: subjects with AE, n (%) (early postpartum women): 1 (6)
Breast engorgement: number of AEs, E (early postpartum women): 3
Breast engorgement: subjects with AE, n (%) (early postpartum women): 3 (17)
Headache: number of AEs, E (early postpartum women): 3
Headache: subjects with AE, n (%) (early postpartum women): 2 (11)
Lactation puerperal increased: number of AEs, E (early postpartum women): 1
Lactation puerperal increased: subjects with AE, n (%) (early postpartum women): 1 (6)
Muscle spasms: number of AEs, E (early postpartum women): 1
Muscle spasms: subjects with AE, n (%) (early postpartum women): 1 (6)
Uterine spasm: number of AEs, E (early postpartum women): 7
Uterine spasm: subjects with AE, n (%) (early postpartum women): 6 (33)
safety (key results) (early postpartum women): No safety
severe or serious AE (early postpartum women; iv): No severe or serious AE occurred
degradation by chymotrypsin (chymotrypsin): degradable by chymotrypsin
metabolites of merotocin in plasma or urine samples [3]: No metabolites of merotocin could be detected
